Measurements reported in ChEMBL document CHEMBL3638950, “Imidazo[5,1-f][1,2,4]triazines for the treatment of neurological disorders” (2013).

Biological target: cGMP-dependent 3',5'-cyclic phosphodiesterase (Homo sapiens, UniProt O00408)
Test: Inhibition Assay: The activity of the test substances on human full-length PDE2A3 enzyme was determined using the [3H]-cGMP scintillation proximity assay (SPA) modified from the Amersham TRKQ7100 instructions (GE Healthcare, USA).

Sequence of cGMP-dependent 3',5'-cyclic phosphodiesterase (O00408 whole entry): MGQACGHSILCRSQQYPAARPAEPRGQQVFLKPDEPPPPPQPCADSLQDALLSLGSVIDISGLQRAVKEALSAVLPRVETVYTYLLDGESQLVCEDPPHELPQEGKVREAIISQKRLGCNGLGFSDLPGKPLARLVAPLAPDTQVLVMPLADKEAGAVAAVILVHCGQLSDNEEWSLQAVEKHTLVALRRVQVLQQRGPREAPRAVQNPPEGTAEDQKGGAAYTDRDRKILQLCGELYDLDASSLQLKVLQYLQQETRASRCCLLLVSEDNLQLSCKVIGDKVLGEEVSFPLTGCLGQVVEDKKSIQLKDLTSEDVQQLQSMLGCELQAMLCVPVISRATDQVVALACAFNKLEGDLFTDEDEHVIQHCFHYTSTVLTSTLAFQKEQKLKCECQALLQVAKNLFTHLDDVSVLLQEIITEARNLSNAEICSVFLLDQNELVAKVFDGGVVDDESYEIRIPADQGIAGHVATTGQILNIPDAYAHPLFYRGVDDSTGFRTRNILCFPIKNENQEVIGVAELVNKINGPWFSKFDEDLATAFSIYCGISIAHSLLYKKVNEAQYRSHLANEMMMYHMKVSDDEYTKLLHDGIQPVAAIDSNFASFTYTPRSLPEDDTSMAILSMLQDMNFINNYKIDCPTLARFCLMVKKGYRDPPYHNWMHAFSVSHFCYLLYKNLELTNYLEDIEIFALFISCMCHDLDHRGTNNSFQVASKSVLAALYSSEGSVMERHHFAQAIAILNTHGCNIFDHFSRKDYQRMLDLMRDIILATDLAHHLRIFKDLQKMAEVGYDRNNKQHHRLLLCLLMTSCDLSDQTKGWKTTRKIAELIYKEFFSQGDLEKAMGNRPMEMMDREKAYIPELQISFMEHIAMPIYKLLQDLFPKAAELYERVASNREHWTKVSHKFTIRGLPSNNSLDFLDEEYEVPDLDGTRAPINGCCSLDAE

IC50: 0.633 nM
Structure (SMILES): Cc1nc(-c2cnn(C)c2-c2ccc(C(F)(F)F)cc2)c2c(N3CC(F)C3)ncnn12
